In brackets after ≈: the same amount, converted by molar mass. Where two headings read alike, the source gives them in different places. One block for each compound: values may come before it.
Key:
[1] = system: Cryptosporidium parvum (CP); assay: Cell culture model of Cryptosporidium parvum infection in HCT-8 cells, real-time qRT-PCR; format: cell-based
Procedure: Fresh oocysts of CP (Iowa strain) were purchased from Bunch Grass Farm (Deary, Id.). Oocysts were further purified by a Percoll-based gradient centrifugation method and surface sterilized with 10% bleach for 7 min on ice, followed by washes with phosphate-buffered saline (PBS). An ileocecal colorectal adenocarcinoma cell line (HCT-8, ATCC #CCL-244) was used to host the growth of CP in vitro. One day before the inoculation, HCT-8 cells were seeded in 96-well plates (2.5×10^4/well) containing RPMI 1640 medium supplied with 10% fetal bovine serum (200 μL medium/well in all experiments) and allowed to grow overnight at 37° C. under 5% CO2 atmosphere until they reached ˜90% confluence. For drug testing, host cells were infected with 1.5×10^4 oocysts per well (ratio ˜1:3). After inoculation, parasite oocysts were allowed to undergo excystation and invasion into host cells for 3 h at 37° C. Free parasites and oocyst walls in the medium were removed from the plates by an exchange of the culture medium. Drugs at specified concentrations were added into the culture at this time point (immediately after the medium exchange). Parasite-infected cells were then incubated at 37° C. for additional 41 h (total 44 h infection time). At least two independent experiments were conducted for every experimental condition, each including two replicates drugs and eight replicates for negative controls.
Plates containing HCT-8 cells infected with CP for 44 h were first centrifuged for 10 min at 1000×g to ensure that free merozoites in the medium were firmly settled on the bottom of the wells. Medium was removed, followed by two gentle washes with PBS. For extracting total RNA, 200 μL of ice-cold Bio-Rad iScript qRT-PCR sample preparation reagent (lysis buffer) (Bio-Rad Laboratories, Hercules, Calif.) was added into each well. Plates were sealed with heat sealing films and subjected to vortex for 20 min. Plates were then incubated at 75° C. for 15 min, followed by centrifugation (5 min, 2000×g) to settle down cell debris. Supernatants were used immediately in subsequent qRT-PCR reactions or the plates were stored at −80° C. until use.
The levels of 18S rRNA transcripts from CP and host cells (referred to as Cp18S and Hs18S) were detected by real-time qRT-PCR method using qScrip™ one-step SYBR green qRT-PCR kit (Quanta Biosciences, Gaithersburg, Md.). Cell lysates prepared as described above were diluted by 100 and 2000 folds for detecting Cp18S and Hs18S transcripts, respectively. Reactions were performed in hard-shell 384-well skirted PCR plates (Bio-Rad Laboratories, Hercules, Calif.) (10 μL/well) containing 3 μL diluted cell lysate, 5 μL one-step SYBR green master mix, 0.2 μl RT master mix and the following primers: Cp18S-1011F and Cp18S-1185R primer pair for Cp18S rRNA, and Hs18S-1F and Hs18S-1R primer pair for Hs18S rRNA. Hs18S levels were used as controls and for normalization.
Real-time qRT-PCR reactions were performed by a Bio-Rad CFX384 Touch Real-Time PCR Detection System. The reactions started with synthesizing cDNA at 50° C. for 20 min, followed by 5 min at 95° C. to denature RNA-cDNA hybrids and deactivate reverse transcriptase, and 40 two-temperature thermal cycles of PCR amplification at 95° C., 10 sec and 58° C., 30 sec. At the end of PCR amplification, melting curve analysis was performed between 65° C. to 95° C. At least 2 technical replicates were included in qRT-PCR reactions for each sample.
The % inhibition (% inh @ (μM)) was calculated using a standard curve.

S. cerevisiae = assay: in vitro; conditions: Saccharomyces cerevisiae
human fibroblast = assay: in vitro
[2] = Cryptosporidium parvum, HCT-8, @10 uM, read-out: % inh @
[3] = Cryptosporidium parvum, 44 h, CP in HCT-8 cells, 44 h infection, 50% reduction of parasite growth vs control, NA: not active, read-out: MIC50

SMILES: CONC(=O)[C@@H](C)Oc1ccc(Oc2cnc3cc(Cl)ccc3n2)cc1 [NZ-295, (2R)-2-{4-[(6-chloroquinoxalin-2-yl)oxy]phenoxy}-N-methoxypropanamide]
inhibition at 10 µM [1, 2]: 61% | concentrations at which not toxic, S. cerevisiae cytotoxicity testing (S. cerevisiae): ≥ 100 µM | concentrations at which not toxic, human fibroblast cytotoxicity testing (human fibroblast; human): ≥ 100 µM

SMILES: CC(C(=O)N(C)C)c1ccc(Oc2nc3ccc(Cl)cc3s2)cc1 (centres unmarked) [NZ-368, 2-{4-[(6-chloro-1,3-benzothiazol-2-yl)oxy]phenyl}-N,N-dimethylpropanamide]
MIC50 [1, 3]: < 0.125 µM | concentrations at which not toxic, S. cerevisiae cytotoxicity testing (S. cerevisiae): 25 to 50 µM | concentrations at which not toxic, human fibroblast cytotoxicity testing (human fibroblast; human): ≥ 100 µM

SMILES: O=C(O)Cc1ccc(Oc2nc3cc(F)c(F)cc3s2)cc1F [NZ-440, 2-{4-[(5,6-difluoro-1,3-benzothiazol-2-yl)oxy]-2-fluorophenyl}acetic acid]
MIC50 [1, 3]: ~10 µM (≈ 3.39 µg/mL) | inhibition at 10 µM [1, 2]: 53% | concentrations at which not toxic, S. cerevisiae cytotoxicity testing (S. cerevisiae): ≥ 100 µM | concentrations at which not toxic, human fibroblast cytotoxicity testing (human fibroblast; human): ≥ 100 µM

SMILES: NC(=O)Cc1ccc(Oc2nc3cc(F)c(F)cc3s2)cc1 [NZ-485, 2-{4-[(5,6-difluoro-1,3-benzothiazol-2-yl)oxy]phenyl}acetamide]
MIC50 [1, 3]: 1 to 4 µM (≈ 0.32 to 1.28 µg/mL) | concentrations at which not toxic, S. cerevisiae cytotoxicity testing (S. cerevisiae): ≥ 100 µM | concentrations at which not toxic, human fibroblast cytotoxicity testing (human fibroblast; human): ≥ 100 µM

SMILES: NC(=O)Cc1ccc(Oc2nc3ccc(F)cc3s2)cc1F [NZ-484, 2-{2-fluoro-4-[(6-fluoro-1,3-benzothiazol-2-yl)oxy]phenyl}acetamide]
MIC50 [1, 3]: ~1 µM (≈ 0.32 µg/mL) | concentrations at which not toxic, S. cerevisiae cytotoxicity testing (S. cerevisiae): ≥ 100 µM | concentrations at which not toxic, human fibroblast cytotoxicity testing (human fibroblast; human): ≥ 100 µM

SMILES: COC(=O)Cc1ccc(Oc2nc3cc(F)c(F)cc3s2)cc1 [NZ-398, methyl 2-{4-[(5,6-difluoro-1,3-benzothiazol-2-yl)oxy]phenyl}acetate]
MIC50 ([1]; Cryptosporidium parvum, 44 h): ~10 µM | inhibition at 10 µM ([1]; Cryptosporidium parvum, HCT-8, read-out: % inh @ (μM)): 50% | concentrations at which not toxic, S. cerevisiae cytotoxicity testing (S. cerevisiae): ≥ 100 µM | concentrations at which not toxic, human fibroblast cytotoxicity testing (human fibroblast): ≥ 100 µM

SMILES: CN1CCN(C(=O)Cc2ccc(Oc3nc4ccc(F)cc4s3)cc2F)CC1 [NZ-467, 2-{2-fluoro-4-[(6-fluoro-1,3-benzothiazol-2-yl)oxy]phenyl}-1-(4-methylpiperazin-1-yl)ethan-1-one]
MIC50 [1, 3]: 0.25 to 1 µM (≈ 0.101 to 0.403 µg/mL) | concentrations at which not toxic, S. cerevisiae cytotoxicity testing (S. cerevisiae): ≥ 100 µM | concentrations at which not toxic, human fibroblast cytotoxicity testing (human fibroblast; human): ≥ 100 µM

SMILES: CC(C(=O)NC(CO)CO)c1ccc(Oc2nc3ccc(Cl)cc3s2)cc1 (centres unmarked) [NZ-371, 2-{4-[(6-chloro-1,3-benzothiazol-2-yl)oxy]phenyl}-N-(1,3-dihydroxypropan-2-yl)propanamide]
MIC50 [1, 3]: 0.15 to 0.23 µM (≈ 0.061 to 0.0936 µg/mL) | concentrations at which not toxic, S. cerevisiae cytotoxicity testing (S. cerevisiae): ≥ 100 µM | concentrations at which not toxic, human fibroblast cytotoxicity testing (human fibroblast; human): ≥ 100 µM

SMILES: CN1CCN(C(=O)Cc2ccc(Oc3nc4ccc(Cl)cc4s3)cc2)CC1 [NZ-464, 2-{4-[(6-chloro-1,3-benzothiazol-2-yl)oxy]phenyl}-1-(4-methylpiperazin-1-yl)ethan-1-one]
MIC50 [1, 3]: 0.05 to 0.27 µM (≈ 0.0201 to 0.109 µg/mL) | concentrations at which not toxic, S. cerevisiae cytotoxicity testing (S. cerevisiae): ≥ 100 µM | concentrations at which not toxic, human fibroblast cytotoxicity testing (human fibroblast; human): ≥ 100 µM

SMILES: CNC(=O)Cc1ccc(Oc2nc3ccc(F)cc3s2)cc1O [NZ-395, 2-{4-[(6-fluoro-1,3-benzothiazol-2-yl)oxy]-2-hydroxyphenyl}-N-methylacetamide]
MIC50 [1, 3]: ~5 µM (≈ 1.66 µg/mL) | concentrations at which not toxic, S. cerevisiae cytotoxicity testing (S. cerevisiae): ≥ 100 µM | concentrations at which not toxic, human fibroblast cytotoxicity testing (human fibroblast; human): ≥ 100 µM

SMILES: CNC(=O)C(C)c1ccc(Oc2nc3ccc(F)cc3s2)cc1 (centres unmarked) [NZ-386, 2-{4-[(6-fluoro-1,3-benzothiazol-2-yl)oxy]phenyl}-N-methylpropanamide]
MIC50 [1, 3]: 0.05 to 0.3 µM (≈ 0.0165 to 0.0991 µg/mL) | concentrations at which not toxic, S. cerevisiae cytotoxicity testing (S. cerevisiae): ≥ 100 µM | concentrations at which not toxic, human fibroblast cytotoxicity testing (human fibroblast; human): ≥ 100 µM

MIC50 [1, 3]: ~1 µM (≈ 0.376 µg/mL)
SMILES: O=C(Nc1ccc(Oc2nc3ccc(Cl)cc3s2)cc1)NC1COC1 [NZ-574, 1-{4-[(6-chloro-1,3-benzothiazol-2-yl)oxy]phenyl}-3-(oxetan-3-yl)urea]

MIC50 [1, 3]: ~0.056 µM (≈ 0.0243 µg/mL)
SMILES: CC(C(=O)NCCN(C)CCO)c1ccc(Oc2nc3ccc(Cl)cc3s2)cc1 (centres unmarked) [NZ-556, 2-{4-[(6-chloro-1,3-benzothiazol-2-yl)oxy]phenyl}-N-{2-[(2-hydroxyethyl)(methyl)amino]ethyl}propanamide]
inhibition at 0.056 µM ([1]; Cryptosporidium parvum, HCT-8, @0.056 uM): 64%

MIC50 [1, 3]: 0.054 µM (≈ 0.0216 µg/mL)
SMILES: O=C(NC1COC1)C1(c2ccc(Oc3nc4ccc(Cl)cc4s3)cc2)CC1 [NZ-564, 1-{4-[(6-chloro-1,3-benzothiazol-2-yl)oxy]phenyl}-N-(oxetan-3-yl)cyclopropane-1-carboxamide]

MIC50 [1, 3]: 0.112 to 0.225 µM (≈ 0.052 to 0.104 µg/mL)
SMILES: CC(C(=O)NCCN(CCO)CCO)c1ccc(Oc2nc3ccc(Cl)cc3s2)cc1 (centres unmarked) [NZ-557, N-{2-[bis(2-hydroxyethyl)amino]ethyl}-2-{4-[(6-chloro-1,3-benzothiazol-2-yl)oxy]phenyl}propanamide]

SMILES: CNC(=O)C(C)c1ccc(Oc2nc3ccc(Cl)cc3s2)cc1 (single isomer, unassigned) [NZ-369 (peak 2), 2-{4-[(6-chloro-1,3-benzothiazol-2-yl)oxy]phenyl}-N-methylpropanamide]
MIC50 ([1]; CP in HCT-8 cells, 44 h infection, 50% reduction of parasite growth vs control, NA: not active): ~0.02 µM (≈ 0.00694 µg/mL)

SMILES: CN1CCN(C(=O)COc2ccc(Oc3cnc4cc(Cl)ccc4n3)cc2)CC1 [NZ-278, 2-{4-[(6-chloroquinoxalin-2-yl)oxy]phenoxy}-1-(4-methylpiperazin-1-yl)ethan-1-one]
MIC50 ([1]; Cryptosporidium parvum, 44 h): ~0.25 µM (≈ 0.103 µg/mL)

MIC50 [1, 3]: > 10 µM
SMILES: CS(=O)(=O)NC(=O)COc1ccc(Oc2cnc3cc(Cl)ccc3n2)cc1 [NZ-259, 2-{4-[(6-chloroquinoxalin-2-yl)oxy]phenoxy}-N-methanesulfonylacetamide]
inhibition at 10 µM [1, 2]: 33%

SMILES: CC(C(=O)N1CCN(C)CC1)c1ccc(Oc2nc3ccc(Cl)cc3s2)cc1 (single isomer, unassigned) [NZ-366 (peak 2), 2-{4-[(6-chloro-1,3-benzothiazol-2-yl)oxy]phenyl}-1-(4-methylpiperazin-1-yl)propan-1-one]
% inh @ (μM) ([1]; @0.05 uM): 81% @0.05 uM | MIC50 ([1]; CP in HCT-8 cells, 44 h infection, 50% reduction of parasite growth vs control, NA: not active, read-out: MIC50): <0.05 µM

SMILES: CC(C(=O)N1CCN(C)CC1)c1ccc(Oc2nc3ccc(Cl)cc3s2)cc1 (single isomer, unassigned) [NZ-366 (peak 1), 2-{4-[(6-chloro-1,3-benzothiazol-2-yl)oxy]phenyl}-1-(4-methylpiperazin-1-yl)propan-1-one]
MIC50 [1, 3]: < 0.05 µM | inhibition at 0.05 µM ([1]; Cryptosporidium parvum, HCT-8, @0.05 uM, read-out: % inh @): 85%

MIC50 [1, 3]: 0.022 to 0.045 µM (≈ 0.00942 to 0.0193 µg/mL)
SMILES: CN1CCN(C(=O)C2(c3ccc(Oc4nc5ccc(Cl)cc5s4)cc3)CC2)CC1 [NZ-522, 6-chloro-2-{4-[1-(4-methylpiperazine-1-carbonyl)cyclopropyl]phenoxy}-1,3-benzothiazole]

MIC50 [1, 3]: > 0.45 µM
SMILES: CC(C(=O)N1CCOCC1)c1ccc(Oc2cnc3cc(Cl)ccc3n2)cc1 (centres unmarked) [NZ-529, 2-{4-[(6-chloroquinoxalin-2-yl)oxy]phenyl}-1-(morpholin-4-yl)propan-1-one]

MIC50 [1, 3]: ~0.056 µM (≈ 0.0242 µg/mL)
SMILES: CC(C(=O)N1CCOC(CO)C1)c1ccc(Oc2nc3ccc(Cl)cc3s2)cc1 (centres unmarked) [NZ-558, 2-{4-[(6-chloro-1,3-benzothiazol-2-yl)oxy]phenyl}-1-[2-(hydroxymethyl)morpholin-4-yl]propan-1-one]

MIC50 [1, 3]: 0.25 µM (≈ 0.0897 µg/mL)
SMILES: CNC(=O)C1(c2ccc(Oc3nc4ccc(Cl)cc4s3)cc2)CC1 [NZ-521, 1-{4-[(6-chloro-1,3-benzothiazol-2-yl)oxy]phenyl}-N-methylcyclopropane-1-carboxamide]

MIC50 [1, 3]: ~0.225 µM (≈ 0.0801 µg/mL)
SMILES: CC(C(=O)N(C)C)c1ccc(Oc2cnc3cc(Cl)ccc3n2)cc1 (centres unmarked) [NZ-530, 2-{4-([6-chloroquinoxalin-2-yl)oxy]phenyl}-N,N-dimethylpropanamide]

Reference: US11083717B2, “Compositions and methods for drug sensitization of parasites” (The Texas A&M University System, priority 2015, dated 2021)
